This is an account of results in patent publication US9078899B2, “Pyrazolyl-based carboxamides II” (Grünenthal GmbH, priority 2013, dated 2015).

Each structure is given as a SMILES string.

In one test the target is T1, CRAC channel (Homo sapiens, UniProt Q96D31).
T1 construct: host or cells: HEK293
Put plainly: HEK Calcium Influx Assay (FLIPR). The test is classed as cell-based. The settings on record: 10 μM; endogenous SOC in HEK293 cells, thapsigargin store depletion, Ca2+ signal 9.5-10 min post-administration; read-out: % inhib.[@ 10 μM] FLIPR. The protocol:
The effect of compounds of the invention on intracellular [Ca^2+] was tested in the HEK293 cell line (ECACC).
HEK293 cells were cultured in DMEM/F12/Glutamax (Gibco) containing 10% FCS (Gibco), and maintained at 37° C., 5% CO2. Cell were split twice a week [3*10^6 (Mon-Thu) and 1*10^6 (Thu-Mon) cells/50 ml medium in T-175 ZK culture flasks, respectively]. Twenty four hours pre-experiment, cells were seeded on 96 well plates (Poly-D-Lysine 96well Black/Clear Plate, BD Biocoat REF 356640) at a density of 40,000 cells/well in DMEM/F12 (Gibco) containing 10% FCS (Gibco), and maintained at 37° C., 5% CO2.
Prior to store-depletion, cell culture medium was removed and cells were loaded with the a Calcium-sensitive fluorescent dye comprised within the Calcium-4-assay kit (Molecular Devices) in nominally Ca^2+-free HBS buffer (140 mM NaCl, 4 mM KCl, 0.2 mM MgCl2, 11 mM D-glucose, and 10 mM HEPES, pH 7.4) according to manufacturer's instruction for 60 min at 37° C., 5% CO2.
Passive depletion of intracellular Ca^2+-stores was then triggered by employing the SERCA inhibitor thapsigargin (2 μM final) for 10 min in the dark (RT). To prevent immediate Ca^2+-entry via the activated Store-operated channels (SOCs), cells were maintained in Ca^2+-free HBS buffer comprising 100 μM EGTA during store-depletion.
Intracellular changes in [Ca^2+] were subsequently monitored with the FLIPR device (Molecular Devices). In brief, baseline imaging post-store depletion was allowed for 1 min before adjusting the extracellular buffer to 3 mM CaCl2. Increases in intracellular [Ca^2+] due to pre-activated SOC channels were monitored for 15 min until intracellular Ca^2+ levels had declined into a steady-state. Finally, compounds were administered and Ca^2+ signals were recorded for additional 10 min.
Inhibition of endogenous SOC in HEK293 cells was quantified employing the average Ca^2+ signal measured from 9.5-10 min post-administration. Zero percent inhibition (MAX) was defined as the Ca^2+ signal recorded from wells to which DMSO-only had been added instead of compound. Hundred percent inhibition (MIN) was defined as the signal obtained from wells in which cells haven't been treated with TG prior to Ca^2+ addition and to which DMSO-only had been added instead of compound. For routine IC50 determinations of compounds, 8 concentrations of a serial dilution (1:3.16) were tested, starting off from 10 μM. Reliable IC50's could consequently be determined only, if they were at least sub 2.5-3 μM.

The test system of test [1] is Interleukin-2 (IL-2) production/release. Put plainly: Jurkat IL-2 Production Assay. The test is classed as cell-based. The settings on record: Homo sapiens; Jurkat T cells clone E6-1, 15 μg/ml PHA for 22 hours, IL-2 in supernatant. As for the experimental part:
Jurkat IL-2 Production Assay
The effect of compounds of the invention on Interleukin-2 (IL-2) production/release was tested in the Jurkat T cell line (ECACC) clone E6-1.
Jurkat T cells were cultured in DMEM/F12/Glutamax (Gibco) containing 10% FCS (Gibco), and maintained at 37° C., 5% CO2. Cell were split twice a week [5*10^6 (Mon-Thu) and 1*10^7 (Thu-Mon) cells/50 ml medium in T-175 ZK culture flasks, respectively].
Prior to experiment, cells were seeded on 96 well plates (Cellstar 96 Well; Cat No. 655180, Greiner bio-one) at a density of 5*10^5 cells/well in DMEM/F12/Glutamax (Gibco) containing 10% FCS (Gibco), and incubated for 60 min at 37° C., 5% CO2. Subsequently, compounds were added and cells were allowed to incubate for 30 min at 37° C., 5% CO2. Cells were then stimulated with 15 μg/ml Phytohemagglutinin (PHA; Sigma) for 22 hours at 37° C., 5% CO2.
Before sampling of the supernatants, cells were spun down (200*g/5 min/RT). The amount of IL-2 released into the supernatant was quantified with the human IL-2 AlphaLisa kit (Perkin Elmer) according to manufacturer's instructions. Luminescence proximity measurements were carried out in the Synergy H4 reader (BioTek) employing the fluorescence setting of the reader (ex: 680/30 nm; em: 620/40 nm).
Inhibition of IL-Production/Release in/from Jurkat T Cells was Quantified as Follows:
Zero percent inhibition (MAX) was defined as the [IL-2] determined in supernatants derived from cells to which PHA & DMSO-only had been added instead of compound. Hundred percent inhibition (MIN) was defined as the [IL-2] determined in supernatants derived from cells that had been pre-treated with 1 μM CyclosporineA (Sigma) before the addition of 15 μg/ml PHA.
For routine IC50 determinations of compounds, 8 concentrations of a serial dilution (1:3.16) were tested, starting off from 10 μM.

T1 sequence (Q96D31 whole entry): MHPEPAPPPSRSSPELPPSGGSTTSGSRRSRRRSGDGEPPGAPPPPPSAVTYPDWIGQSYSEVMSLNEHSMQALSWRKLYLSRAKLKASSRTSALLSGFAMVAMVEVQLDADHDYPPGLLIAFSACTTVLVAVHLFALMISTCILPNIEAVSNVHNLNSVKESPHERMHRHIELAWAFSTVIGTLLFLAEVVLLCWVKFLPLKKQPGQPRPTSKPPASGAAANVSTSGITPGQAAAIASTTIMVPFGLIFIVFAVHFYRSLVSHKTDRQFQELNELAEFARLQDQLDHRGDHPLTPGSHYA

Usually IC50 stands for the point on the concentration scale where inhibition reaches its midpoint. For the molecule `COc1ccc(OC)c(-c2cc(C(=O)Nc3cnccc3C)nn2C)c1` [Example 16, 5-(2,5-Dimethoxyphenyl)-1-methyl-N-(4-methyl-pyridin-3-yl)-1H-pyrazole-3-carboxylic acid amide], the inhibition at 10 µM at CRAC channel is greater than 70%. Moreover, in test [1], the IC50 was 1 to 5 µM.

Regarding `COc1ccc(OC)c(-c2c(N)c(C(=O)Nc3c(F)cccc3F)nn2C)c1` [Example 44, 4-Amino-N-(2,6-difluoro-phenyl)-5-(2,5-dimethoxyphenyl)-1-methyl-1H-pyrazole-3-carboxylic acid amide], the inhibition at 10 µM at CRAC channel was 50 to 70%. Moreover, the IC50 in test [1] fell in the range of 1 to 5 µM.

On to `COc1cc(F)c(NC(=O)c2cc(-c3cc(OC)ccc3OC)n(C)n2)c(F)c1` [Example 31, N-(2,6-Difluoro-4-methoxy-phenyl)-5-(2,5-dimethoxyphenyl)-1-methyl-1H-pyrazole-3-carboxylic acid amide], for which the inhibition at 10 µM on CRAC channel was greater than 70%. For the same molecule, the half-maximal inhibitory concentration (IC50) in test [1] was less than 0.5 µM.

For the molecule `COc1ccc(OC)c(-c2cc(C(=O)Nc3c(F)cncc3F)nn2C)c1` [Example 34, N-(3,5-Difluoro-pyridin-4-yl)-5-(2,5-dimethoxyphenyl)-1-methyl-1H-pyrazole-3-carboxylic acid amide], on CRAC channel, the inhibition at 10 µM is greater than 70%. Moreover, in test [1], the IC50 is less than 0.5 µM.

In the case of `COc1ccc(OC)c(-c2cc(C(=O)Nc3ccc(F)cc3F)nn2C)c1` [Example 2, N-(2,4-Difluoro-phenyl)-5-(2,5-dimethoxyphenyl)-1-methyl-1H-pyrazole-3-carboxylic acid amide], on CRAC channel, the inhibition at 10 µM is greater than 70%. In test [1], the IC50 fell in the range of 1 to 5 µM.

Consider `Cn1nc(C(=O)Nc2c(F)cccc2F)cc1-c1c(F)cccc1C(F)(F)F` [Example 51, N-(2,6-Difluoro-phenyl)-5-[2-fluoro-6-(trifluoromethyl)-phenyl]-1-methyl-1H-pyrazole-3-carboxylic acid amide], for which the inhibition at 10 µM on CRAC channel was in the range of 50 to 70%. Besides, in test [1], the IC50 lay within 1 to 5 µM.

Consider `COc1ccc(OC)c(-c2c(Cl)c(C(=O)Nc3c(F)cccc3F)nn2C)c1` [Example 39, 4-Chloro-N-(2,6-difluoro-phenyl)-5-(2,5-dimethoxyphenyl)-1-methyl-1H-pyrazole-3-carboxylic acid amide], for which, on CRAC channel, the inhibition at 10 µM is greater than 70%. In test [1], the IC50 was less than 0.5 µM.

Turning to `CCc1c(C(=O)Nc2c(F)cccc2F)nn(C)c1-c1cc(OC)ccc1OC` [Example 42, N-(2,6-Difluoro-phenyl)-5-(2,5-dimethoxyphenyl)-4-ethyl-1-methyl-1H-pyrazole-3-carboxylic acid amide], the inhibition at 10 µM at CRAC channel is 50 to 70%. The half-inhibitory concentration (IC50) in test [1] lay within 1 to 5 µM.

In the case of `COc1ccc(OC)c(-c2cc(C(=O)Nc3ccccc3C)nn2C)c1` [Example 27, 5-(2,5-Dimethoxyphenyl)-1-methyl-N-(o-tolyl)-1H-pyrazole-3-carboxylic acid amide], the inhibition at 10 µM on CRAC channel is greater than 70%. Further, the IC50 in test [1] was in the range of 1 to 5 µM.

For the molecule `Cc1ccc(Cl)cc1-c1cc(C(=O)Nc2c(F)cccc2F)nn1C` [Example 26, 5-(5-Chloro-2-methyl-phenyl)-N-(2,6-difluoro-phenyl)-1-methyl-1H-pyrazole-3-carboxylic acid amide], on CRAC channel, the inhibition at 10 µM was greater than 70%. The IC50 in test [1] was in the range of 1 to 5 µM.

Regarding `COc1ccc(OC)c(-c2cc(C(=O)Nc3ccncc3C)nn2C)c1` [Example 20, 5-(2,5-Dimethoxyphenyl)-1-methyl-N-(3-methyl-pyridin-4-yl)-1H-pyrazole-3-carboxylic acid amide], the inhibition at 10 µM at CRAC channel is greater than 70%. The IC50 in test [1] lay within 0.5 to 1 µM.

Consider `Cn1nc(C(=O)Nc2ccncc2F)cc1-c1cc(OC(F)(F)F)ccc1C1CC1` [Example 47, 5-[2-Cyclopropyl-5-(trifluoromethyloxy)-phenyl]-N-(3-fluoro-pyridin-4-yl)-1-methyl-1H-pyrazole-3-carboxylic acid amide], for which, at CRAC channel, the inhibition at 10 µM is greater than 70%. The half-inhibitory concentration (IC50) in test [1] is 1 to 5 µM.

Turning to `COc1ccc(OC(F)(F)F)c(-c2cc(C(=O)Nc3c(F)cccc3F)nn2C)c1` [Example 8, N-(2,6-Difluoro-phenyl)-5-[5-methoxy-2-(trifluoromethyloxy)-phenyl]-1-methyl-1H-pyrazole-3-carboxylic acid amide], on CRAC channel, the inhibition at 10 µM was greater than 70%. The IC50 in test [1] is less than 0.5 µM.

As to `COc1ccc(OC)c(-c2c(CO)c(C(=O)Nc3c(F)cccc3F)nn2C)c1` [Example 43, N-(2,6-Difluoro-phenyl)-5-(2,5-dimethoxyphenyl)-4-(hydroxymethyl)-1-methyl-1H-pyrazole-3-carboxylic acid amide], the inhibition at 10 µM on CRAC channel is less than 50%. In addition, the IC50 in test [1] was in the range of 1 to 5 µM.

For `COc1ccc(OC)c(-c2cc(C(=O)Nc3c(F)cccc3F)nn2C)c1` [Example 21, N-(2,6-Difluoro-phenyl)-5-(2,5-dimethoxyphenyl)-1-methyl-1H-pyrazole-3-carboxylic acid amide], the inhibition at 10 µM at CRAC channel was greater than 70%. Moreover, the IC50 in test [1] is less than 0.5 µM.

Turning to `Cn1nc(C(=O)Nc2c(F)cncc2F)cc1-c1cc(OC(F)(F)F)ccc1C1CC1` [Example 46, 5-[2-Cyclopropyl-5-(trifluoromethyloxy)-phenyl]-N-(3,5-difluoro-pyridin-4-yl)-1-methyl-1H-pyrazole-3-carboxylic acid amide], at CRAC channel, the inhibition at 10 µM is greater than 70%. Besides, the half-inhibitory concentration (IC50) in test [1] was less than 0.5 µM.

For the molecule `Cn1nc(C(=O)Nc2c(F)cccc2F)cc1-c1cc(C(F)(F)F)ccc1Cl` [Example 36, 5-[2-Chloro-5-(trifluoromethyl)-phenyl]-N-(2,6-difluoro-phenyl)-1-methyl-1H-pyrazole-3-carboxylic acid amide], the inhibition at 10 µM at CRAC channel was greater than 70%. The concentration for half-maximal inhibition (IC50) in test [1] is less than 0.5 µM.

Consider `COc1ccc(OC)c(-c2cc(C(=O)Nc3cnc(C)cc3C)nn2C)c1` [Example 17, 5-(2,5-Dimethoxyphenyl)-N-(4,6-dimethyl-pyridin-3-yl)-1-methyl-1H-pyrazole-3-carboxylic acid amide], for which the inhibition at 10 µM on CRAC channel lay in the range of 50 to 70%. Also, the 50% inhibitory concentration (IC50) in test [1] was 1 to 5 µM.

In the case of `COc1ccc(OC)c(-c2cc(C(=O)Nc3ccncc3C#N)nn2C)c1` [Example 15, N-(3-Cyano-pyridin-4-yl)-5-(2,5-dimethoxyphenyl)-1-methyl-1H-pyrazole-3-carboxylic acid amide], on CRAC channel, the inhibition at 10 µM is 50 to 70%. In test [1], the half-inhibitory concentration (IC50) lay in the range of 1 to 5 µM.

For the molecule `Cc1cccc(Cl)c1NC(=O)c1cc(-c2c(F)cccc2F)n(C)n1` [Example 52, N-(2-Chloro-6-methyl-phenyl)-5-(2,6-difluoro-phenyl)-1-methyl-1H-pyrazole-3-carboxylic acid amide], the inhibition at 10 µM at CRAC channel lay within 50 to 70%.

With `Cc1cncc(F)c1NC(=O)c1cc(-c2c(F)cccc2C(F)(F)F)n(C)n1` [Example 63, N-(3-Fluoro-5-methyl-pyridin-4-yl)-5-[2-fluoro-6-(trifluoromethyl)-phenyl]-1-methyl-1H-pyrazole-3-carboxylic acid amide], the inhibition at 10 µM at CRAC channel is greater than 70%.
